Results on three molecules are retold here after ChEMBL document CHEMBL1150433, “Synthesis and activity of conformationally-constrained macrocyclic norstatine-based inhibitors of HIV protease” (Bioorg Med Chem Lett, 1996).

Each structure is given as a SMILES string.

One experiment has as its system MT2. As to the kind of experiment: Antiviral activity against […] RF infected MT-2 cells. Type of experiment: functional, cell-based. The conditions noted are these: Homo sapiens.
Experiment [1] deals with Human immunodeficiency virus type 1 protease (Human immunodeficiency virus 1, UniProt Q72874). The experiment is described as follows: Compound was evaluated for the inhibition of HIV protease.

For orientation: EC50 means the concentration at which the effect is half-maximal. By IC50 is commonly meant the point on the concentration scale where inhibition reaches its midpoint. A high value points to lower potency. In the experiment on MT2, `CC(C)(C)NC(=O)[C@@H]1CCCN1C(=O)[C@@H](O)[C@@H]1Cc2ccc(cc2)OCCCOc2cc3ccccc3cc2C(=O)N[C@@H](CC(N)=O)C(=O)N1` gave an EC50 of 76 nM. In addition, in experiment [1], the IC50 is 19 nM.

`CC(C)(C)OC(=O)[C@@H]1CCCN1C[C@@H](O)[C@H](Cc1ccccc1)NC(=O)[C@H](CC(N)=O)NC(=O)c1ccc2ccccc2n1` registered an IC50 in experiment [1] of 23 nM.

The molecule `CC(C)(C)NC(=O)[C@@H]1CCCN1C(=O)[C@H](O)[C@@H]1Cc2ccc(cc2)OCCCOc2cc3ccccc3cc2C(=O)N[C@@H](CC(N)=O)C(=O)N1` had a half-inhibitory concentration (IC50) in experiment [1] of 3800 nM.
